Assay results from ChEMBL document CHEMBL1124722, “Synthesis and anticonvulsant activity of 2-benzylglutarimides” (J Med Chem, 1990).
The source made the active and inactive calls. The rule behind the calls is not given here.

Assays:
[1] = tested on: Mus musculus; experiment: The effective dose of compound was tested against subcutaneous administered Metrazol induced seizures after intraperitoneal administration;NE=Not effective; type: functional, organism-based
[2] = species: Mus musculus; experiment: (§1) Time of peak effect activity against maximal electroshock induced seizures; type: functional
[3] = species: Mus musculus; experiment: Median hypnotic dose by loss of righting reflex.; type: functional
[4] = species: Mus musculus; experiment: Time of peak effect was determined for toxicity; type: organism-based; design: unit not given here; details: in vivo
[5] = Median lethal dose was measured after 24 hr.; type: organism-based; details: mouse, in vivo
[6] = species: Mus musculus; experiment: Time of peak effect toxicity against maximal electroshock induced seizures; type: organism-based; details: in vivo
[7] = tested on: Rattus norvegicus; experiment: The effective dose of compound was tested against subcutaneous administered Metrazol induced seizures in rat; NE=Not effective; type: functional, organism-based
[8] = species: Mus musculus; experiment: Time of peak effect was determined for activity in MES; type: functional; design: unit not given here
[9] = The cytotoxicity after intraperitoneal administration in rat.; type: organism-based; details: in vivo, ip
[10] = species: Mus musculus; experiment: Median hypnotic dose by loss of righting reflex; type: functional
[11] = tested on: Mus musculus; experiment: The compound was tested for anticonvulsant activity against (subcutaneous administered) Metrazol induced seizures after intraperitoneal administration; type: functional
[12] = tested on: Mus musculus; experiment: The effective dose of compound was tested against maximal electroshock induced seizures after intraperitoneal administration; type: functional; details: ip
[13] = tested on: Mus musculus; experiment: The compound was tested for anticonvulsant activity against (subcutaneous administered) strychnine induced seizures after intraperitoneal administration; type: functional
[14] = species: Mus musculus; experiment: Median lethal dose was measured after 24 hr; type: functional
[15] = tested on: Mus musculus; experiment: The effective dose of compound was tested against maximal electroshock induced seizures after oral administration in mice; type: functional
[16] = tested on: Mus musculus; experiment: The effective dose of compound was tested against subcutaneous administered Metrazol induced seizures after intraperitoneal administration; type: functional
[17] = tested on: Rattus norvegicus; experiment: The effective dose of compound was tested against subcutaneous administered Metrazol induced seizures in rat.; type: functional; details: sc
[18] = tested on: Mus musculus; experiment: The effective dose of compound was tested against subcutaneous administered Metrazol induced seizures in mice; type: functional; details: sc
[19] = tested on: Mus musculus; experiment: Anticonvulsant activity against subcutaneous administered Metrazol induced seizures (scMET) after 4 hr; Not active up to 300 mg/kg; type: functional, organism-based; design: dose 300 mg/kg
[20] = tested on: Mus musculus; experiment: Anticonvulsant activity against maximal electroshock induced seizures (MES) after 0.5 h; Not active up to 300 mg/kg; type: functional, organism-based; design: dose 300 mg/kg
[21] = tested on: Mus musculus; experiment: Anticonvulsant activity against maximal electroshock induced seizures after 4 hr; Not active up to 300 mg/kg.; type: functional, organism-based; design: dose 300 mg/kg
[22] = tested on: Mus musculus; experiment: (§2) The Neurologic toxicity by measuring rotarod test after 0.5 h; Not active up to 300 mg/kg; type: organism-based; design: dose 300 mg/kg; details: in vivo
[23] = tested on: Mus musculus; experiment: (§3) The Neurologic toxicity by measuring rotarod test after 4 hr; Not active up to 300 mg/kg; type: organism-based; design: dose 300 mg/kg; details: in vivo
[24] = tested on: Mus musculus; experiment: Anticonvulsant activity against maximal electroshock induced seizures (MES) after 0.5 hr at 300 mg/kg; Active; type: functional, organism-based; design: dose 300 mg/kg
[25] = tested on: Mus musculus; experiment: Anticonvulsant activity against maximal electroshock induced seizures (MES) after 4 hr at 300 mg/kg; Active; type: functional, organism-based; design: dose 300 mg/kg
[26] = tested on: Mus musculus; experiment: Anticonvulsant activity against subcutaneous administered Metrazol induced seizures (scMET) after 0.5 hr at 30 mg/kg; Active; type: functional, organism-based; design: dose 30 mg/kg
[27] = tested on: Mus musculus; experiment: Anticonvulsant activity against subcutaneous administered Metrazol induced seizures (scMET) after 4 hr at 300 mg/kg; Active; type: functional, organism-based; design: dose 300 mg/kg
[28] = tested on: Mus musculus; experiment: The Neurologic toxicity by measuring rotarod test after 4 hr; No toxicity up to 300 mg/kg; type: organism-based; design: dose 300 mg/kg; details: in vivo
[29] = The cytotoxicity after intraperitoneal administration; type: organism-based; details: mouse, in vivo, ip
[30] = tested on: Mus musculus; experiment: The Neurologic toxicity by measuring rotarod test after 0.5 hr at 300 mg/kg; Active; type: organism-based; design: dose 300 mg/kg; details: in vivo
[31] = Protective index was calculated (TD50/ED50) in MES assay in mice after intraperitoneal administration; type: functional
[32] = Protective index was calculated (TD50/ED50) in scMET assay in mice after intraperitoneal administration; type: functional
[33] = tested on: Mus musculus; experiment: Anticonvulsant activity against subcutaneous administered Metrazol induced seizures (scMET) after 0.5 hr at 100 mg/kg; Active; type: functional, organism-based; design: dose 100 mg/kg
[34] = tested on: Mus musculus; experiment: Anticonvulsant activity against subcutaneous administered Metrazol induced seizures (scMET) after 4 hr at 100 mg/kg; Active; type: functional, organism-based; design: dose 100 mg/kg
[35] = tested on: Mus musculus; experiment: The effective dose of compound was tested against maximal electroshock induced seizures after intraperitoneal administration; no protection up to 1050 mg/kg; type: functional, organism-based; design: dose 1050 mg/kg
[36] = tested on: Mus musculus; experiment: Anticonvulsant activity against subcutaneous administered Metrazol induced seizures (scMET) after 0.5 hr; Not active up to 300 mg/kg; type: functional, organism-based; design: dose 300 mg/kg
[37] = tested on: Mus musculus; experiment: The Neurologic toxicity by measuring rotarod test after 4 hr at 300 mg/kg; Active; type: organism-based; design: dose 300 mg/kg; details: in vivo
[38] = tested on: Mus musculus; experiment: Anticonvulsant activity against subcutaneous administered Metrazol induced seizures (scMET) after 0.5 hr at 300 mg/kg; Active; type: functional, organism-based; design: dose 300 mg/kg
[39] = tested on: Mus musculus; experiment: as §2; type: functional, organism-based; design: dose 300 mg/kg
[40] = tested on: Mus musculus; experiment: as §3; type: functional, organism-based; design: dose 300 mg/kg
[41] = tested on: Mus musculus; experiment: The effective dose of compound was tested against maximal electroshock induced seizures after intraperitoneal administration.; type: functional; details: ip
[42] = tested on: Mus musculus; experiment: The effective dose of compound was tested against subcutaneous administered Metrazol induced seizures after intraperitoneal administration.; type: functional
[43] = species: Mus musculus; experiment: as §1; type: ADME, organism-based; details: in vivo
[44] = tested on: Mus musculus; experiment: The effective dose of compound was tested against maximal electroshock induced seizures after oral administration in mice.; type: functional
[45] = tested on: Rattus norvegicus; experiment: The effective dose of compound was tested against maximal electroshock induced seizures after oral administration in rat.; type: functional
[46] = tested on: Mus musculus; experiment: Anticonvulsant activity against subcutaneous administered Metrazol induced seizures (scMET) after 4 hr up to 300 mg/kg; type: functional, organism-based; design: dose 300 mg/kg
[47] = tested on: Mus musculus; experiment: The Neurologic toxicity by measuring rotarod test after 0.5 h up to 300 mg/kg; type: functional, organism-based; design: dose 300 mg/kg
[48] = tested on: Mus musculus; experiment: The Neurologic toxicity by measuring rotarod test after 4 hr up to 300 mg/kg; type: functional, organism-based; design: dose 300 mg/kg
[49] = tested on: Mus musculus; experiment: Anticonvulsant activity against maximal electroshock induced seizures (MES) after 0.5 hr at 100 mg/kg; Active; type: functional, organism-based; design: dose 100 mg/kg
[50] = Protective index was calculated (TD50/ED50) in MES assay in mice after intraperitoneal administration; […]; type: functional, organism-based

Compound	TPE [4]	TPE [8]	ED50 [16] [mg/kg]	Activity [19]	Activity [20]	Activity [21]	Toxicity [22]	Toxicity [23]	TD50 [29] [mg/kg]	Toxicity [30]	Ratio [32]	Activity [36]	also measured
O=C1NC(=O)C(c2ccccc2)(c2ccccc2)N1 [PHENYTOIN]	2	2											ED50 [1]: inactive; Activity [2]: 2 h; HD50 [3]: 178.34 mg/kg; LD50 at 24 h [5]: 230 mg/kg; Time of peak effect [6]: 2 h; ED50 [7]: inactive; TD50 [9]: > 3000 mg/kg
CCCC(CCC)C(=O)O [VALPROIC ACID]			149										Activity [2]: 0.25; HD50 [10]: 885.53 mg/kg; ED50 [11]: 149 mg/kg; ED50 [12]: 272 mg/kg; ED50 [13]: 293 mg/kg; LD50 [14]: 1100 mg/kg; ED50 [15]: 665 mg/kg; Time of peak effect [6]: 0.25; ED50 [17]: 180 mg/kg; ED50 [18]: 388 mg/kg
CN1C(=O)CCC(Cc2ccccc2)C1=O (stereo not given)				inactive	inactive	inactive	Not Active	Not Active					
O=C1CCC(Cc2ccc(Br)cc2)C(=O)N1 (stereo not given)			56.3						513	Active	9.11		Activity [24]: Active; Activity [25]: Active; Activity [26]: Active; Activity [27]: Active; TPE [2]: 1; ED50 [12]: 279 mg/kg; TPE [6]: 1; Toxicity [28]: No toxicity up to 300 mg/kg; Ratio [31]: 1.84
CN1C(=O)CCC(Cc2ccc(Cl)cc2Cl)C1=O (stereo not given)	2	0.5	153		inactive	inactive	Not Active	Not Active	650		4.24		Activity [33]: Active; Activity [34]: Active; ED50 [35]: no protection up to 1050 mg/kg
CC(C)Oc1ccc(CC2CCC(=O)NC2=O)cc1 (stereo not given)				inactive	inactive	inactive				Active		inactive	Toxicity [37]: Active
O=C1CCC(Cc2ccc(Cl)c(Cl)c2)C(=O)N1 (stereo not given)				inactive	inactive	inactive	Not Active	Not Active				inactive	
O=C1CCC(Cc2ccc(F)cc2)C(=O)N1 (stereo not given)				inactive		inactive		Not Active		Active			Activity [38]: Active
C[Si](C)(C)c1ccc(CC2CCC(=O)NC2=O)cc1 (stereo not given)				inactive	inactive	inactive						inactive	Toxicity [39]: inactive; Toxicity [40]: inactive
CN1C(=O)CCC(Cc2ccc(I)cc2)C1=O (stereo not given)					inactive	inactive	Not Active	Not Active					Activity [26]: Active; Activity [27]: Active
CN1C(=O)CCC(Cc2ccc([Si](C)(C)C)cc2)C1=O (stereo not given)				inactive	inactive	inactive						inactive	Toxicity [39]: inactive; Toxicity [40]: inactive
CCC1(C)CC(=O)NC1=O (stereo not given) [ETHOSUXIMIDE]													ED50 [41]: > 1000 mg/kg; ED50 [42]: 130 mg/kg; Activity [43]: 0.5; HD50 [3]: 850.61 mg/kg; ED50 [11]: 130 mg/kg; LD50 at 24 h [5]: 1750 mg/kg; ED50 [44]: > 2000 mg/kg; Time of peak effect [6]: 0.5; ED50 [45]: > 1200 mg/kg; ED50 [17]: 54 mg/kg; ED50 [18]: 192 mg/kg
O=C1CCC(Cc2ccc(C(F)(F)F)cc2)C(=O)N1 (stereo not given)	1	2	119						349	Active	2.92		Activity [24]: Active; Activity [25]: Active; Activity [33]: Active; Activity [27]: Active; ED50 [12]: 126 mg/kg; Toxicity [37]: Active; Ratio [31]: 2.76
CN1C(=O)CCC(Cc2ccc(Cl)cc2)C1=O (stereo not given)	1	0.5	124	inactive		inactive		Not Active	348	Active	2.81		Activity [24]: Active; Activity [33]: Active; ED50 [12]: 248 mg/kg; Ratio [31]: 1.4
CCCOc1ccc(CC2CCC(=O)NC2=O)cc1 (stereo not given)				inactive	inactive	inactive				Active		inactive	Toxicity [37]: Active
CN1C(=O)CCC(Cc2ccc(Br)cc2)C1=O (stereo not given)	1.5	1	143	inactive		inactive	Not Active	Not Active	534		3.72		Activity [24]: Active; Activity [33]: Active; ED50 [12]: 162 mg/kg; Ratio [31]: 3.8
O=C1CCC(Cc2ccccc2)C(=O)N1 (stereo not given)						inactive						inactive	Activity [24]: Active; Activity [46]: inactive; Toxicity [47]: inactive; Toxicity [48]: inactive
O=C1CCC(Cc2ccccc2Br)C(=O)N1 (stereo not given)				inactive	inactive	inactive				Active		inactive	Toxicity [37]: Active
CN1C(=O)CCC(Cc2ccc(C(F)(F)F)cc2)C1=O (stereo not given)					inactive		Not Active	Not Active					Activity [25]: Active; Activity [38]: Active; Activity [27]: Active
O=C1CCC(Cc2ccc(-c3ccccc3)cc2)C(=O)N1 (stereo not given)				inactive	inactive	inactive	Not Active	Not Active				inactive	
CN1C(=O)CCC(Cc2ccccc2Br)C1=O (stereo not given)	0.5	1	256			inactive	Not Active	Not Active	617		2.41		Activity [49]: Active; Activity [38]: Active; Activity [34]: Active; ED50 [12]: 474 mg/kg; Ratio [31]: 1.3
O=C1CCC(Cc2ccc(Cl)cc2Cl)C(=O)N1 (stereo not given)	0.5	1			inactive	inactive			687	Active	4.29		Activity [38]: Active; Activity [34]: Active; ED50 [42]: 160 mg/kg; Toxicity [37]: Active; Ratio [50]: inactive
